Experimental data published in patent US7541020B2, “Aminoalkyl glucosaminide phosphate compounds and their use as adjuvants and immunoeffectors” (priority 1997, dated 2009).
Values joined by “and” are separate entries in the source; they are usually repeats but may differ in a detail not shown here. Identical values can stand only once. Like-named read-outs stand apart in the source and are kept apart here.

Columns and labels:
influenza A/HK/68 [1] = type: in vivo, BALB/c mice; details: mouse, in vivo
influenza A/HK/68 [2] = system: influenza A/HK/68; design: species or system ICR mice; details: mouse, in vivo
[3] = Fever response in rabbits (pyrogenicity); type: in vivo; details: for PYROGENICITY Total Rise ° C., 3 rabbits: 10 ug/kg, cumulative rise ≥1.5 degree in three rabbits is considered pyrogenic
Protocol: The AGP compounds were also evaluated for their tendency to induce a fever response in rabbits. Each compound was formulated in 10% (v/v) ethanol/water solution at 100 mg/ml, then diluted with D5W to the desired concentration. The material was injected at 3 ml/kg body weight into 3 rabbits. The rise in core temperature of the rabbits was recorded.

influenza A/HK/68 [4] = type: in vivo, ICR mice; details: mouse, in vivo
[5] = system: hepatitis B surface antigen (HBsAg); experiment: Serum anti-HBsAg antibody titers after intranasal HBsAg + AGP-AF (ELISA); type: in vivo, BALB/c mice; details: for Anti HBsAg Titer^−1 IgG1 / Anti HBsAg Titer^−1 IgG2a: K = 10^3
influenza A/HK/68 [6] = system: influenza A/HK/68; design: species or system ICR mice; details: mouse, in vivo; remark: listed apart in the source
[7] = system: hepatitis B surface antigen (HBsAg); experiment: Vaginal wash anti-HBsAg antibody after intranasal HBsAg + AGP-AF; type: in vivo, BALB/c mice; details: 10 days after the booster immunization; intranasal HBsAg + 10 μg AGP-AF
Source text: Vaginal samples were collected 10 days after the booster immunization and assayed for anti-HBsAg antibody.

E.G7 (OVA) cells = details: s.c. 25 μg OVA in AGP preparation, spleen cells 21 days later
[8] = system: hepatitis B surface antigen (HBsAg); details: for % Cytotoxicity (d16, post 2°): HBsAg + 10 μg AGP-AF intranasally; for % Cytotoxicity (d8, post 3°): intranasal HBsAg + 10 μg AGP-AF
[9] = system: hepatitis B surface antigen (HBsAg); experiment: Anti-HBsAg antibody titer with AGP-SE (ELISA plates coated with HBsAg or p72 peptide); details: sera day 28 post 2°, 25 μg AGP-SE
[10] = system: hepatitis B surface antigen (HBsAg); experiment: Cytotoxic T-lymphocyte response to HBsAg with AGP in stable emulsion (AGP-SE); details: s.c. 2.0 μg HBsAg + 25 μg AGP/SE
tetanus toxoid [11] = system: tetanus toxoid; design: species or system BFD1 (C57B1/6X DBA/2) female mice; details: mouse, in vivo
tetanus toxoid [12] = details: mouse, in vivo, sc
tetanus toxoid [13] = details: mouse, in vivo
influenza A/HK/68 [14] = experiment: Second intranasal influenza vaccine experiment with aqueous AGP and MPL formulations: vaginal, tracheal wash and serum titers, protection; type: in vivo, BABL/c mice; details: mouse, in vivo
ovalbumin = experiment: Stimulation of antiovalbumin antibody production; type: in vivo, BDF1 female mice; details: 50 μg AGP + 50 μg ovalbumin; second immunization day 21; bled 14 days after second injection
Protocol: BDF1 female mice (8 per group) were immunized with 0.2 ml of emulsions containing 50 μg of the AGPs +50 μg of ovalbumin. A second immunization was administered 21 days post primary. Each mouse was bled 14 days after the second injection.

IL-1β = experiment: Cytokine induction in human whole blood ex vivo culture: IL-1β (ELISA); type: cell-based; details: 4 hr, Table 17
Outline: (§1)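 Compounds in 10% EtOH-water added at 1:10 to human whole blood, 4 hr at 37° C with rotation; RPMI-treated controls. After PBS dilution and centrifugation, supernatant TNF-α and IL-1β measured by ELISA.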

TNF-α = experiment: Cytokine induction in human whole blood ex vivo culture: TNF-α (ELISA); type: cell-based; details: 4 hr, Table 17
Outline: as §1

[15] = day 22 post 2°, HBsAg + 10 μg AGP-AF intranasally
[16] = serum, day 21 post 3°, intranasal HBsAg + 10 μg AGP-AF
[17] = ELISA plates coated with p72 peptide

For “3-Hydroxy-(S)-2-[(R)-3-dodecanoyloxytetradecanoylamino]propyl 2-Deoxy-4-O-phosphono-2-[(R)-3-dodecanoyloxytetradecanoylamino]-3-O-[(R)-3-dodecanoyloxytetradecanoyl]-β-D-glucopyranoside Triethylammonium Salt [B3]”, the “Anti-influenza Titer^−1 IgG1” value (influenza A/HK/68 [1]) was 3200, the “Anti-influenza Titer^−1 IgG2b” value (influenza A/HK/68 [1]) was 800 and the “Anti-influenza Titer^−1 Total IgG” value (influenza A/HK/68 [1]) was 3200. The “Percent Survival” value (influenza A/HK/68 [1]) was 87.5%, the “IgG Titer-1 post 1°” value (influenza A/HK/68 [2]) was 3200 and the “IgG Titer-1 post 2°” value (influenza A/HK/68 [2]) was 102,400. For the same substance, the “Percent Survival post 1°” value (influenza A/HK/68 [2]) was 70%, the “Percent Survival post 2°” value (influenza A/HK/68 [2]) was 60% and the “PYROGENICITY Total Rise ° C., 3 rabbits” value [3] was 4.2 °C. The “Percent Survival” value (influenza A/HK/68 [4]) was 0%, the “Titer−1 IgG2a” value (influenza A/HK/68 [4]) was 50 and the “Titer−1 IgG2b” value (influenza A/HK/68 [4]) was 800. The “Anti HBsAg Titer^−1 IgA” value [5, 15] was 6,400, the “Anti HBsAg Titer^−1 IgG1” value [5, 15] was 1000K and the “Anti HBsAg Titer^−1 IgG2a” value [5, 15] was 500K. For the same substance, the “Anti HBsAg Titer^−1 IgG1” value [5, 16] was 1000K, the “Anti HBsAg Titer^−1 IgG2a” value [5, 16] was 1000K and the “Anti HBsAg Titer^−1 IgA” value [5, 16] was 25,600. For the same substance, the “Percent Survival” value (influenza A/HK/68 [6]) was 33%, the “Vaginal Wash Anti-HBsAg Titer^−1 IgA” value [7] was 1600 and the “Vaginal Wash Anti-HBsAg Titer^−1 IgG” value [7] was 800. For the same substance, the “% Cytotoxicity” value (E.G7 (OVA) cells; E:T 12.5:1) was 42%, the “% Cytotoxicity” value (E.G7 (OVA) cells; E:T 25:1) was 54% and the “% Cytotoxicity” value (E.G7 (OVA) cells; E:T 50:1) was 65%. The “% Cytotoxicity (d16, post 2°)” value ([8]; E/T 6.25:1) was 11%, the “% Cytotoxicity (d8, post 3°)” value ([8]; E/T 6.25:1) was 20% and the “% Cytotoxicity (d16, post 2°)” value ([8]; E/T 12.5:1) was 17%. For the same substance, the “% Cytotoxicity (d8, post 3°)” value ([8]; E/T 12.5:1) was 32%, the “% Cytotoxicity (d16, post 2°)” value ([8]; E/T 25:1) was 26% and the “% Cytotoxicity (d8, post 3°)” value ([8]; E/T 25:1) was 45%. For the same substance, the “% Cytotoxicity (d16, post 2°)” value ([8]; E/T 50:1) was 43%, the “% Cytotoxicity (d8, post 3°)” value ([8]; E/T 50:1) was 54% and the “Anti-HBsAg Titer^−1 HBsAg IgG1” value ([9]; ELISA plates coated with HBsAg) was 512K. The “Anti-HBsAg Titer^−1 HBsAg IgG2a” value ([9]; ELISA plates coated with HBsAg) was 1024K, the “Anti-HBsAg Titer^−1 p72-Peptide IgG1” value [9, 17] was 16K and the “Anti-HBsAg Titer^−1 p72-Peptide IgG2a” value [9, 17] was 128K. The “% Cytotoxicity” value ([10]; d16, post 2°, E:T 6.25:1) was 22%, the “% Cytotoxicity” value ([10]; d16, post 2°, E:T 12.5:1) was 32% and the “% Cytotoxicity” value ([10]; d16, post 2°, E:T 25:1) was 47%. For the same substance, the “% Cytotoxicity” value ([10]; d16, post 2°, E:T 50:1) was 81%, the “% Cytotoxicity” value ([10]; d17, post 1°, E:T 6.25:1) was 5% and the “% Cytotoxicity” value ([10]; d17, post 1°, E:T 12.5:1) was 9%. The “% Cytotoxicity” value ([10]; d17, post 1°, E:T 25:1) was 15% and the “% Cytotoxicity” value ([10]; d17, post 1°, E:T 50:1) was 28%.
For “N-[(R)-3-Decanoyloxytetradecanoyl]-O-[2-deoxy-4-O-phosphono-2-[(R)-3-decanoyloxytetradecanoylamino]-3-O-[(R)-3-decanoyloxytetradecanoyl]-β-D-glucopyranosyl]-L-serine Triethylammonium Salt [B15]”, the “Anti-influenza Titer^−1 IgG1” value (influenza A/HK/68 [1]) was 3200, the “Anti-influenza Titer^−1 IgG2a” value (influenza A/HK/68 [1]) was 3200 and the “Anti-influenza Titer^−1 IgG2b” value (influenza A/HK/68 [1]) was 400. The “Anti-influenza Titer^−1 Total IgG” value (influenza A/HK/68 [1]) was 1600, the “Percent Survival” value (influenza A/HK/68 [1]) was 100% and the “IgG1 T/C Ratio” value (tetanus toxoid [11]) was 4.1 and 4.5 and 5.5. For the same substance, the “IgM T/C” value (tetanus toxoid [11]) was 3.14 and 2.29 and 2.86 and 1.71 and 1.57, the “Total Ig T/C” value (tetanus toxoid [11]) was 233.88 and 181.91 and 170.10 and 248.06 and 166.56 and the “Total Ig T/C Ratio” value (tetanus toxoid [11]) was 3.3 and 5.8 and 5.3. The “Anti-tetanus toxoid IgM T/C” value (tetanus toxoid [12]) was 4.0 and 2.7, the “Anti-tetanus toxoid Total Ig T/C” value (tetanus toxoid [12]) was 144.5 and the “Anti-tetanus toxoid Total Ig Titer” value (tetanus toxoid [12]) was 34,400. The “Anti-tetanus toxoid Total IgG T/C” value (tetanus toxoid [12]) was 18.85, the “Anti-tetanus toxoid Total IgG Titer” value (tetanus toxoid [12]) was 121,600 and the “Anti-Tetanus Toxoid Titer^−1 Fecal Extract IgG” value (tetanus toxoid [13]) was 50 and 100. For the same substance, the “Anti-Tetanus Toxoid Titer^−1 Vaginal Wash IgA” value (tetanus toxoid [13]) was 6400, the “Anti-Tetanus Toxoid Titer^−1 Vaginal Wash IgG” value (tetanus toxoid [13]) was 400 and 800 and the “PYROGENICITY Total Rise ° C., 3 rabbits” value [3] was 3.1 °C. The “PY[…]” value ([3]; rabbits) was <0.06 µg/kg, the “Mucosal IgA Response TW” value (influenza A/HK/68 [14]) was 11.1 and the “Mucosal IgA Response VW” value (influenza A/HK/68 [14]) was 10.9. For the same substance, the “Percent Protection” value (influenza A/HK/68 [14]) was 100%, the “Serum IgG Titers” value (influenza A/HK/68 [14]) was 19.1 and the “mucosal adjuvant activity (in words)” value (influenza A/HK/68 [14]) was “act as mucosal adjuvants causing the production of IgA at two mucosal sites”. The “Percent Survival” value (influenza A/HK/68 [4]) was 70%, the “Titer^−1 IgG1” value (influenza A/HK/68 [4]) was 200 and the “Titer^−1 IgG2a” value (influenza A/HK/68 [4]) was 3200. The “Titer^−1 IgG2b” value (influenza A/HK/68 [4]) was 6400, the “Titer^−1 Total IgG” value (influenza A/HK/68 [4]) was 3200 and the “Anti HBsAg Titer^−1 IgA” value [5, 15] was 6,400. For the same substance, the “Anti HBsAg Titer^−1 IgG1” value [5, 15] was 256K, the “Anti HBsAg Titer^−1 IgG2a” value [5, 15] was 500K and the “Anti HBsAg Titer^−1 IgG1” value [5, 16] was 2000K. For the same substance, the “Anti HBsAg Titer^−1 IgG2a” value [5, 16] was 2000K, the “Anti HBsAg Titer^−1 IgA” value [5, 16] was 25,600 and the “Anti-ovalbumin IgG1 T/C” value (ovalbumin) was 0.6. The “Anti-ovalbumin IgG1 Titer” value (ovalbumin) was 950, the “Anti-ovalbumin IgG2a T/C” value (ovalbumin) was 0.3 and the “Anti-ovalbumin IgG2a Titer” value (ovalbumin) was 113. The “Anti-ovalbumin IgG2b T/C” value (ovalbumin) was 16.7, the “Anti-ovalbumin IgG2b Titer” value (ovalbumin) was 3963 and the “Anti-ovalbumin IgM T/C” value (ovalbumin) was 2.3. For the same substance, the “Anti-ovalbumin IgM Titer” value (ovalbumin) was 438, the “Anti-ovalbumin Total Ig T/C” value (ovalbumin) was 4.1 and the “Anti-ovalbumin Total Ig Titer” value (ovalbumin) was 925. For the same substance, the “Anti-influenza Titer^−1 Total IgG” value (influenza A/HK/68 [6]) was 6400, the “Percent Survival” value (influenza A/HK/68 [6]) was 50% and the “Vaginal Wash Anti-HBsAg Titer^−1 IgA” value [7] was 3200. For the same substance, the “Vaginal Wash Anti-HBsAg Titer^−1 IgG” value [7] was 50, the “% Cytotoxicity” value (E.G7 (OVA) cells; E:T 12.5:1) was 30% and the “% Cytotoxicity” value (E.G7 (OVA) cells; E:T 25:1) was 49%. The “% Cytotoxicity” value (E.G7 (OVA) cells; E:T 50:1) was 58%, the “% Cytotoxicity (d16, post 2°)” value ([8]; E/T 6.25:1) was 4% and the “% Cytotoxicity (d8, post 3°)” value ([8]; E/T 6.25:1) was 16%. For the same substance, the “% Cytotoxicity (d16, post 2°)” value ([8]; E/T 12.5:1) was 4%, the “% Cytotoxicity (d8, post 3°)” value ([8]; E/T 12.5:1) was 25% and the “% Cytotoxicity (d16, post 2°)” value ([8]; E/T 25:1) was 5%. The “% Cytotoxicity (d8, post 3°)” value ([8]; E/T 25:1) was 42%, the “% Cytotoxicity (d16, post 2°)” value ([8]; E/T 50:1) was 13% and the “% Cytotoxicity (d8, post 3°)” value ([8]; E/T 50:1) was 56%. For the same substance, the IL-1β (IL-1β; Dosage 100 ng/ml) was 51.6 pg/mL, the IL-1β (IL-1β; Dosage 500 ng/ml) was 104 pg/mL and the IL-1β (IL-1β; Dosage 1000 ng/ml) was 94.4 pg/mL. It also gave an IL-1β (IL-1β; Dosage 5000 ng/ml) of 126 pg/mL, an IL-1β (IL-1β; Dosage 10,000 ng/ml) of 153 pg/mL and a TNF-α (TNF-α; Dosage 100 ng/ml) of 133 pg/mL. For the same substance, the TNF-α (TNF-α; Dosage 500 ng/ml) was 183 pg/mL, the TNF-α (TNF-α; Dosage 1000 ng/ml) was 209 pg/mL and the TNF-α (TNF-α; Dosage 5000 ng/ml) was 280 pg/mL. It also gave a TNF-α (TNF-α; Dosage 10,000 ng/ml) of 320 pg/mL.
